Experimental data as given in ChEMBL document CHEMBL1909046, “DrugMatrix in vitro pharmacology data”.
pIC50, pKi: −log10 of the molar value.

How the values were obtained:
[1] = target: T1, Type-2 angiotensin II receptor (Homo sapiens, UniProt P50052); format: cell-based; details: cho-k1; note: in other assays of this panel Not Active means under 50% inhibition at 10 µM
T1 sequence (P50052 whole entry): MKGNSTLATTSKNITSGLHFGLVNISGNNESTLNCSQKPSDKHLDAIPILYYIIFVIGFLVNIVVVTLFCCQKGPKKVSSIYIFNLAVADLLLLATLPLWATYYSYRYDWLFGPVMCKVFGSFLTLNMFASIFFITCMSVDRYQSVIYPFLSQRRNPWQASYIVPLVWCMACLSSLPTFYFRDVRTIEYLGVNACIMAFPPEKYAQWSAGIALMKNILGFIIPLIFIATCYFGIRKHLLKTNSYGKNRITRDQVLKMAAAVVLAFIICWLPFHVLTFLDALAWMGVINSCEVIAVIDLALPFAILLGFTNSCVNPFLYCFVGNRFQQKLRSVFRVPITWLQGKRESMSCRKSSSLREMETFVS

[2] = target: Matrix metalloproteinase-9 (Homo sapiens, UniProt P14780); assay: biochemical; format: cell-based;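 note: inhibition of isolated MMP-9 enzyme activity toward a synthetic peptide substrate, from the DrugMatrix protease screening panel; in other assays of this panel Not Active means under 50% inhibition at 10 µM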
Sequence of Matrix metalloproteinase-9 (P14780 whole entry): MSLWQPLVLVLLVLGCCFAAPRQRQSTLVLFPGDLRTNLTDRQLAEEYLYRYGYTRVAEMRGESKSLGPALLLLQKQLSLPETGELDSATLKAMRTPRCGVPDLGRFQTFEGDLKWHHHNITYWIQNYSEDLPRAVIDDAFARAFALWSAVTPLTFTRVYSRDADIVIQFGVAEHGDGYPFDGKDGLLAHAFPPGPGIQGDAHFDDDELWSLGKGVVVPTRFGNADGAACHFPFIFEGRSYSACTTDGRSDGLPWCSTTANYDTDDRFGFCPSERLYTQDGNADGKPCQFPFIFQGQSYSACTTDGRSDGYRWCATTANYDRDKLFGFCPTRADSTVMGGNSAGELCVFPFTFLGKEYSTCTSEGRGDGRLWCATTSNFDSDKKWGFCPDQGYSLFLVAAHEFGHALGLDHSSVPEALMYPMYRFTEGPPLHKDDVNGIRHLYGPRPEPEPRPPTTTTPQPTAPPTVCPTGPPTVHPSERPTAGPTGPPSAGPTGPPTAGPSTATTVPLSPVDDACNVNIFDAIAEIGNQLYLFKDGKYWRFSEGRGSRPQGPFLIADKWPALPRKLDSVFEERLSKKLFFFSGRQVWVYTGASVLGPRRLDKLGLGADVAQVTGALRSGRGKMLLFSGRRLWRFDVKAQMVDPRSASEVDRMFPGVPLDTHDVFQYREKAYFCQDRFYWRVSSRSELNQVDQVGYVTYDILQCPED

Vasopressin V1a receptor = Vasopressin V1a receptor (Homo sapiens, UniProt P37288); format: cell membranes, Membrane; details: hek293; note: in other assays of this panel Not Active means under 50% inhibition at 10 µM
Sequence of Vasopressin V1a receptor (P37288 whole entry): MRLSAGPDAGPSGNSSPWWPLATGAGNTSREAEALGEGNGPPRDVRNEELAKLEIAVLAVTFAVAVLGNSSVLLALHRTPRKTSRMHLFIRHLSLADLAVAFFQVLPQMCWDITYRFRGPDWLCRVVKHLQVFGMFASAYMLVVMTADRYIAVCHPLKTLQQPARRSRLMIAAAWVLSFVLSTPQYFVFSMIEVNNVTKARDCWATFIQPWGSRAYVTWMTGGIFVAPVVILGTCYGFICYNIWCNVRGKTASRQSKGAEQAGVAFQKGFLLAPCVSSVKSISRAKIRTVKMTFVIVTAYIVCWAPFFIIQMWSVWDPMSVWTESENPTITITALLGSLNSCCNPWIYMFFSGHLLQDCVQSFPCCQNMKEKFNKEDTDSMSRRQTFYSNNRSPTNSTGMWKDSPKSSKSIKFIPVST

[3] = target: Sodium-dependent noradrenaline transporter (Homo sapiens, UniProt P23975); assay: DRUGMATRIX: Norepinephrine Transporter radioligand binding (ligand: [125I] RTI-55); format: cell membranes, MDCK, Membrane; details: mdck; Not Active = under 50% inhibition at 10 µM
Sequence of Sodium-dependent noradrenaline transporter (P23975 whole entry): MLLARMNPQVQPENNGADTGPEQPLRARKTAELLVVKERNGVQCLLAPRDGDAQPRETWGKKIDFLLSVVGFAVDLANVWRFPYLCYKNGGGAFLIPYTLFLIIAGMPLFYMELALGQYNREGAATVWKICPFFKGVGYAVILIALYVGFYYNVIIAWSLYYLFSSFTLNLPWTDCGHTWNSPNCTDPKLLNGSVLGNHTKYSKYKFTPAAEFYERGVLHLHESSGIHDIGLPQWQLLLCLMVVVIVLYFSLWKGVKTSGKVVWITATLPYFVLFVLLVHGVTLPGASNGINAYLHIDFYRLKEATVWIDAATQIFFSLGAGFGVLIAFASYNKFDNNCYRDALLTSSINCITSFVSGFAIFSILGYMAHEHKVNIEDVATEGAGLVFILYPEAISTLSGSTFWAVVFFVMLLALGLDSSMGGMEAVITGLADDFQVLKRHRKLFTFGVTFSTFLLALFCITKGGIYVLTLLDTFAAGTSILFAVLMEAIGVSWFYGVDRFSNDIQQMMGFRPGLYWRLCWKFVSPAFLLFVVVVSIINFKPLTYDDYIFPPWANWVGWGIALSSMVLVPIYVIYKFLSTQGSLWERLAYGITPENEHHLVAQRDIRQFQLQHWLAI

[4] = DRUGMATRIX: beta-Lactamase enzyme inhibition (substrate: Nitrocefin); design: species or system Bacillus cereus; details: Not Active = under 50% inhibition at 10 µM
[5] = DRUGMATRIX: Glutamate, AMPA radioligand binding (ligand: [3H] AMPA); format: cell membranes, Rattus norvegicus, Wistar, Cerebral cortex, Membrane; details: Not Active = under 50% inhibition at 10 µM
[6] = DRUGMATRIX: Serotonin (5-Hydroxytryptamine) 5-HT3 radioligand binding (ligand: [3H] GR-65630); format: cell membranes, Membrane; details: hek293, Not Active = under 50% inhibition at 10 µM

Row | SMILES | IC50 [1] | IC50 [2] | IC50 (Vasopressin V1a receptor) | IC50 [3] | IC50 [4] | Ki [4] | IC50 [5] | Ki [5] | pIC50 ([6]; read-out: IC50) | pKi ([6]; read-out: Ki) | IC50 [6] | Ki [6]
1 | CN1C(=O)COc2c(C(=O)NC3CN4CCC3CC4)cc(Cl)cc21 (stereo not given) [AZASETRON] | Not Active | Not Active | Not Active | Not Active | Not Active | Not Active | Not Active | Not Active | 7.89 | 8.54 |  | 
2 | C[C@H]1C[C@H]2[C@@H]3CCC4=CC(=O)C=C[C@]4(C)[C@@]3(Cl)[C@@H](O)C[C@]2(C)[C@@]1(O)C(=O)CO [BECLOMETHASONE] | Not Active | Not Active | Not Active | Not Active | Not Active | Not Active | Not Active | Not Active |  |  | Not Active | Not Active
3 | CCOC(=O)[C@H](CCc1ccccc1)N[C@H]1CCc2ccccc2N(CC(=O)O)C1=O [BENAZEPRIL] | Not Active | Not Active | Not Active | Not Active | Not Active | Not Active | Not Active | Not Active |  |  | Not Active | Not Active
4 | Nc1c(CC(=O)O)cccc1C(=O)c1ccc(Br)cc1 [BROMFENAC] | Not Active | Not Active | Not Active | Not Active | Not Active | Not Active | Not Active | Not Active |  |  | Not Active | Not Active
5 | CCCCN1CCCCC1C(=O)Nc1c(C)cccc1C.Cl (stereo not given) [BUPIVACAINE HYDROCHLORIDE] | Not Active | Not Active | Not Active | Not Active | Not Active | Not Active | Not Active | Not Active |  |  | Not Active | Not Active
6 | O=C1CC2(CCCC2)CC(=O)N1CCCCN1CCN(c2ncccn2)CC1 [BUSPIRONE] | Not Active | Not Active | Not Active | Not Active | Not Active | Not Active | Not Active | Not Active |  |  | Not Active | Not Active
7 | C[C@@]12C(=O)OC(=O)[C@]1(C)[C@H]1CC[C@@H]2O1 [CANTHARIDIN] | Not Active | Not Active | Not Active | Not Active | Not Active | Not Active | Not Active | Not Active |  |  | Not Active | Not Active
8 | O=NN(CCCl)C(=O)NCCCl [CARMUSTINE] | Not Active | Not Active | Not Active | Not Active | Not Active | Not Active | Not Active | Not Active |  |  | Not Active | Not Active
9 | CC1=C(C(=O)O)N2C(=O)[C@@H](NC(=O)[C@H](N)c3ccccc3)[C@H]2SC1 [CEPHALEXIN ANHYDROUS] | Not Active | Not Active | Not Active | Not Active | Not Active | Not Active | Not Active | Not Active |  |  | Not Active | Not Active
10 | O=C(N[C@H](CO)[C@H](O)c1ccc([N+](=O)[O-])cc1)C(Cl)Cl [CHLORAMPHENICOL] | Not Active | Not Active | Not Active | Not Active | Not Active | Not Active | Not Active | Not Active |  |  | Not Active | Not Active
11 | ClC(Cl)Cl [CHLOROFORM] | Not Active | Not Active | Not Active | Not Active | Not Active | Not Active | Not Active | Not Active |  |  | Not Active | Not Active
12 | C=C1CC[C@H](O)C/C1=C/C=C1\CCC[C@]2(C)[C@@H]([C@H](C)CCCC(C)C)CC[C@@H]12 [CHOLECALCIFEROL] | Not Active | Not Active | Not Active | Not Active | Not Active | Not Active | Not Active | Not Active |  |  | Not Active | Not Active
